Test results published in patent US20110015119A1, “NOVEL SEMI-SYNTHETIC GLYCOPEPTIDES AS ANTIBACTERIAL AGENTS” (LEAD THERAPEUTICS, INC., priority 2009, published 2011).
≈ marks a conversion by molar mass, not a printed value. Read-outs that look alike come from different tables or passages of the source.

Experiments:
Assay type in all cases: cell-based
[1] = tested on: Staphylococcus aureus 100 (ATCC 29213); experiment: MIC by broth microdilution, SA 100
Protocol: (§1) Antibacterial activity in vitro is investigated by broth microdilution method in Meuller-Hinton broth as recommended by NCCLS. All strains tested are clinical isolates either sensitive or resistant to natural glycopeptides. MIC values were determined using the CLSI-recommended broth microdilution procedure (Clinical and Laboratory Standards Institute, Methods for Dilution Antimicrobial Susceptibility Tests for Bacteria That Grow Aerobically; Approved Standard-Seventh Edition.). Automated liquid handlers (Multidrop 384, Labsystems, Helsinki, Finland; Biomek 2000 and Multimek 96, Beckman Coulter, Fullerton Calif.) were used to conduct serial dilutions and liquid transfers. The MIC value for vancomycin is given for comparison. The abbreviations for organisms tested are as follow: SA 100—Staphylococcus aureus 100 (ATCC 29213); SA 757—Staphylococcus aureus 757 (MRSA); SA 2012—Staphylococcus aureus 2012 (VISA); SE 835—Staphylococcus epidermidis 835; SE 831—Staphylococcus epidermidis 831 (MRSE); EFc 101—Enterococcus faecalis 101 (ATCC 29212); EFc 848—Enterococcus faecalis 848 (VRE, Van A); EFcm 800—Enterococcus faecium 800; EFcm 752—Enterococcus faecium 752 (VRE, Van A); SPNE 1195—Streptococcus pneumoniae 1195 (ATCC 49619); SPY 712—Streptococcus pyogenes 712.

[2] = tested on: Staphylococcus aureus 757 (MRSA); experiment: MIC by broth microdilution, SA 757; conditions: read-out: MIC SA 757
Protocol: as §1

[3] = tested on: Staphylococcus aureus 2012 (VISA); experiment: MIC by broth microdilution, SA 2012; conditions: class symbols
Protocol: as §1

[4] = tested on: Staphylococcus epidermidis 835; experiment: MIC by broth microdilution, SE 835
Protocol: as §1

[5] = tested on: Staphylococcus epidermidis 831 (MRSE); experiment: MIC by broth microdilution, SE 831; conditions: read-out: MIC SE 831
Protocol: as §1

[6] = tested on: Enterococcus faecalis 101 (ATCC 29212); experiment: MIC by broth microdilution, EFc 101; conditions: class symbols
Protocol: as §1

[7] = tested on: Enterococcus faecalis 848 (VRE, Van A); experiment: MIC by broth microdilution, EFc 848; conditions: class symbols
Protocol: as §1

Enterococcus faecium 800 = experiment: MIC by broth microdilution, EFcm 800
Protocol: as §1

[8] = tested on: Enterococcus faecium 752 (VRE, Van A); experiment: MIC by broth microdilution, EFcm 752; conditions: class symbols
Protocol: as §1

[9] = tested on: Streptococcus pneumoniae 1195 (ATCC 49619); experiment: MIC by broth microdilution, SPNE 1195
Protocol: as §1

[10] = tested on: Streptococcus pyogenes 712; experiment: MIC by broth microdilution, SPY 712
Protocol: as §1

[11] = ATCC29213, Staphylococcus aureus 100 (ATCC 29213), class symbols, read-out: MIC SA 100
[12] = Staphylococcus aureus 757 (MRSA), class symbols
[13] = Staphylococcus aureus 2012 (VISA), read-out: MIC SA 2012
[14] = Staphylococcus epidermidis 835, class symbols, read-out: MIC SE 835
[15] = Staphylococcus epidermidis 831 (MRSE), class symbols
[16] = ATCC29212, Enterococcus faecalis 101 (ATCC 29212), read-out: MIC E FC 101
[17] = Enterococcus faecalis 848 (VRE, Van A), read-out: MIC E FC 848
[18] = Enterococcus faecium 800, class symbols, read-out: MIC E FCM 800
[19] = Enterococcus faecium 752 (VRE, Van A), read-out: MIC E FCM 752
[20] = ATCC49619, Streptococcus pneumoniae 1195 (ATCC 49619), class symbols, read-out: MIC S PNE 1195
[21] = Streptococcus pyogenes 712, class symbols, read-out: MIC S PYO 712

Structure (SMILES) | MIC [1, 11] | MIC [2, 12] | MIC [3, 13] | MIC [4, 14] | MIC [5, 15] | MIC [6, 16] | MIC [7, 17] | MIC (Enterococcus faecium 800; [18]) | MIC [8, 19] | MIC [9, 20] | MIC [10, 21] | other results
CCCCCCc1ccc(S(=O)(=O)NCCCCCCNCc2c(O)cc3c(c2O)-c2cc(ccc2O)[C@H]2NC(=O)[C@@H]4NC(=O)[C@H](CC(N)=O)NC(=O)[C@H](NC(=O)[C@@H](CC(C)C)NC)[C@H](O)c5ccc(c(Cl)c5)Oc5cc4cc(c5O[C@@H]4O[C@H](CO)[C@@H](O)[C@H](O)[C@H]4O[C@H]4C[C@](C)(NC(N)=O)[C@H](OC(N)=O)[C@H](C)O4)Oc4ccc(cc4Cl)[C@@H](O)[C@H](NC2=O)C(=O)N[C@@H]3C(=O)O)cc1 (atropisomer, axis not shown) [Compound 370] | 0.01 to 0.5 µg/mL (≈ 0.0053 to 0.265 µM) | 0.01 to 0.5 µg/mL (≈ 0.0053 to 0.265 µM) | 0.01 to 0.5 µg/mL (≈ 0.0053 to 0.265 µM) | 0.01 to 0.5 µg/mL (≈ 0.0053 to 0.265 µM) | 0.01 to 0.5 µg/mL (≈ 0.0053 to 0.265 µM) | 0.01 to 0.5 µg/mL (≈ 0.0053 to 0.265 µM) | > 16 µg/mL | 0.01 to 0.5 µg/mL (≈ 0.0053 to 0.265 µM) | 4 to 8 µg/mL (≈ 2.12 to 4.24 µM) | 0.01 to 0.5 µg/mL (≈ 0.0053 to 0.265 µM) | 0.01 to 0.5 µg/mL (≈ 0.0053 to 0.265 µM) | –
CCCCCCCCNC(=O)Oc1cc(O)c2c(c1)[C@@H](C(=O)NC1C3CC4CC(C3)CC1C4)NC(=O)[C@H]1NC(=O)[C@H](NC(=O)[C@@H]3NC(=O)[C@H](CC(N)=O)NC(=O)[C@H](NC(=O)[C@@H](CC(C)C)NC)[C@H](O)c4ccc(c(Cl)c4)Oc4cc3cc(c4OC3OC(CO)C(O)C(O)C3OC3CC(C)(N)C(O)C(C)O3)Oc3ccc(cc3Cl)[C@H]1O)c1ccc(O)c-2c1 (stereo partly shown) [Compound 33] | – | – | – | – | – | – | – | – | – | – | – | MIC ([1]; Staphylococcus aureus, ATCC29213, read-out: MIC SA 100): 0.01 to 0.5 µg/mL (≈ 0.00575 to 0.288 µM); MIC ([2]; Staphylococcus aureus, MRSA): 0.01 to 0.5 µg/mL (≈ 0.00575 to 0.288 µM); MIC ([3]; Staphylococcus aureus, VISA, read-out: MIC SA 2012, Staphylococcus aureus 2012 (VISA)): 0.5 to 1 µg/mL (≈ 0.288 to 0.575 µM); MIC ([4]; Staphylococcus epidermidis, 835, read-out: MIC SE 835): 0.01 to 0.5 µg/mL (≈ 0.00575 to 0.288 µM); MIC ([5]; Staphylococcus epidermidis, MRSE): 0.01 to 0.5 µg/mL (≈ 0.00575 to 0.288 µM); MIC ([6]; Enterococcus faecalis, ATCC29212, read-out: MIC E FC 101, Enterococcus faecalis 101 (ATCC 29212)): 0.01 to 0.5 µg/mL (≈ 0.00575 to 0.288 µM); MIC ([7]; Enterococcus faecalis, VRE, read-out: MIC E FC 848, Enterococcus faecalis 848 (VRE, Van A)): 2 to 4 µg/mL (≈ 1.15 to 2.3 µM); MIC (Enterococcus faecium 800; Enterococcus faecium, 800, read-out: MIC E FCM 800): 0.01 to 0.5 µg/mL (≈ 0.00575 to 0.288 µM); MIC ([8]; Enterococcus faecium, VRE, read-out: MIC E FCM 752, Enterococcus faecium 752 (VRE, Van A)): 0.5 to 1 µg/mL (≈ 0.288 to 0.575 µM); MIC ([9]; Streptococcus pneumoniae, ATCC49619, read-out: MIC S PNE 1195): 0.01 to 0.5 µg/mL (≈ 0.00575 to 0.288 µM); MIC ([10]; Streptococcus pyogenes, 712, read-out: MIC S PYO 712): 0.01 to 0.5 µg/mL (≈ 0.00575 to 0.288 µM)

Second part, led by results:

MIC [1, 11] | MIC [2, 12] | MIC [3, 13] | MIC [4, 14] | MIC [5, 15] | MIC [6, 16] | MIC [7, 17] | MIC (Enterococcus faecium 800; [18]) | MIC [8, 19] | MIC [9, 20] | MIC [10, 21] | Structure (SMILES) | other results
0.01 to 0.5 µg/mL (≈ 0.00531 to 0.265 µM) | 0.01 to 0.5 µg/mL (≈ 0.00531 to 0.265 µM) | 0.01 to 0.5 µg/mL (≈ 0.00531 to 0.265 µM) | 0.01 to 0.5 µg/mL (≈ 0.00531 to 0.265 µM) | 0.01 to 0.5 µg/mL (≈ 0.00531 to 0.265 µM) | 0.01 to 0.5 µg/mL (≈ 0.00531 to 0.265 µM) | > 16 µg/mL | 0.01 to 0.5 µg/mL (≈ 0.00531 to 0.265 µM) | 1 to 2 µg/mL (≈ 0.531 to 1.06 µM) | 0.01 to 0.5 µg/mL (≈ 0.00531 to 0.265 µM) | 0.01 to 0.5 µg/mL (≈ 0.00531 to 0.265 µM) | CCCCCCc1ccc(S(=O)(=O)NCCCCCCNCc2c(O)cc3c(c2O)-c2cc(ccc2O)[C@H]2NC(=O)[C@@H]4NC(=O)[C@H](CC(N)=O)NC(=O)[C@H](NC(=O)[C@@H](CC(C)C)NC)[C@H](O)c5ccc(c(Cl)c5)Oc5cc4cc(c5O[C@@H]4O[C@H](CO)[C@@H](O)[C@H](O)[C@H]4O[C@H]4C[C@](C)(NC(=O)NC5CC5)[C@H](O)[C@H](C)O4)Oc4ccc(cc4Cl)[C@@H](O)[C@H](NC2=O)C(=O)N[C@@H]3C(=O)O)cc1 (atropisomer, axis not shown) [Compound 365] | –
0.01 to 0.5 µg/mL (≈ 0.00523 to 0.261 µM) | 0.01 to 0.5 µg/mL (≈ 0.00523 to 0.261 µM) | 0.01 to 0.5 µg/mL (≈ 0.00523 to 0.261 µM) | 0.01 to 0.5 µg/mL (≈ 0.00523 to 0.261 µM) | 0.01 to 0.5 µg/mL (≈ 0.00523 to 0.261 µM) | 0.01 to 0.5 µg/mL (≈ 0.00523 to 0.261 µM) | 8 to 16 µg/mL (≈ 4.18 to 8.36 µM) | 0.01 to 0.5 µg/mL (≈ 0.00523 to 0.261 µM) | 2 to 4 µg/mL (≈ 1.05 to 2.09 µM) | 0.01 to 0.5 µg/mL (≈ 0.00523 to 0.261 µM) | 0.01 to 0.5 µg/mL (≈ 0.00523 to 0.261 µM) | CCCCCCCCc1ccc(S(=O)(=O)NCCCCCCNCc2c(O)cc3c(c2O)-c2cc(ccc2O)[C@H]2NC(=O)[C@@H]4NC(=O)[C@H](CC(N)=O)NC(=O)[C@H](NC(=O)[C@@H](CC(C)C)NC)[C@H](O)c5ccc(c(Cl)c5)Oc5cc4cc(c5O[C@@H]4O[C@H](CO)[C@@H](O)[C@H](O)[C@H]4O[C@H]4C[C@](C)(NC(=O)NC5CC5)[C@H](O)[C@H](C)O4)Oc4ccc(cc4Cl)[C@@H](O)[C@H](NC2=O)C(=O)N[C@@H]3C(=O)O)cc1 (atropisomer, axis not shown) [Compound 366] | –
0.01 to 0.5 µg/mL (≈ 0.00537 to 0.268 µM) | 0.01 to 0.5 µg/mL (≈ 0.00537 to 0.268 µM) | 0.5 to 1 µg/mL (≈ 0.268 to 0.537 µM) | 0.01 to 0.5 µg/mL (≈ 0.00537 to 0.268 µM) | 0.01 to 0.5 µg/mL (≈ 0.00537 to 0.268 µM) | 0.01 to 0.5 µg/mL (≈ 0.00537 to 0.268 µM) | > 16 µg/mL | 0.01 to 0.5 µg/mL (≈ 0.00537 to 0.268 µM) | 2 to 4 µg/mL (≈ 1.07 to 2.15 µM) | 0.01 to 0.5 µg/mL (≈ 0.00537 to 0.268 µM) | 0.01 to 0.5 µg/mL (≈ 0.00537 to 0.268 µM) | CCCCCCc1ccc(NC(=O)NCCCCCCNCc2c(O)cc3c(c2O)-c2cc(ccc2O)[C@H]2NC(=O)[C@@H]4NC(=O)[C@H](CC(N)=O)NC(=O)[C@H](NC(=O)[C@@H](CC(C)C)NC)[C@H](O)c5ccc(c(Cl)c5)Oc5cc4cc(c5O[C@@H]4O[C@H](CO)[C@@H](O)[C@H](O)[C@H]4O[C@H]4C[C@](C)(NC(=O)NC5CC5)[C@H](O)[C@H](C)O4)Oc4ccc(cc4Cl)[C@@H](O)[C@H](NC2=O)C(=O)N[C@@H]3C(=O)O)cc1 (atropisomer, axis not shown) [Compound 368] | –
